Measurements as given in PMC13629022 (ACS Omega, 2026).
Entries after “also recorded” stand apart in the source; their conditions may differ. Where two headings read alike, the source gives them in different places.

Assays:
[1] = test system: IL-1β production by stimulated J774.A1 macrophages; assay: IL-1β production by LPS + IFN-γ stimulated J774.A1 macrophages (ELISA); type: cell-based, murine; details: compounds at 62.5 μM, Dexa 40 μM, 24 h, vs stimulated untreated cells, p < 0.05
Experimental: (§1) Cells were then stimulated with LPS (500 ng/mL) and IFN-γ (5 ng/mL) in the presence of either the test compounds at different concentrations (3.9–250 μM), the medium alone, or dexamethasone (40 μM, reference drug) and further incubated at 37 °C. Cell-free supernatants were collected 24 h after incubation for IL-1β, IL-6, and nitrite quantification. Cytokine concentrations in the supernatants of J774.A1 cultures were determined by enzyme-linked immunosorbent assay (ELISA) using the DuoSet kit (R&D Systems, Minneapolis, MN, USA), according to the manufacturer’s instructions. Results were expressed as picograms per milliliter (pg/mL) of IL-1β or IL-6. Quantification of nitrite as an indicator of nitric oxide production was performed using the Griess method. Three independent experiments were performed. −

[2] = test system: IL-6 production by stimulated J774.A1 macrophages; assay: IL-6 production by LPS + IFN-γ stimulated J774.A1 macrophages (ELISA); type: cell-based, murine; details: compounds at 62.5 μM, Dexa 40 μM, 24 h, vs stimulated untreated cells, p < 0.05
Experimental: as §1

[3] = test system: nitric oxide production by stimulated J774.A1 macrophages; assay: Nitric oxide production by LPS + IFN-γ stimulated J774.A1 macrophages (nitrite, Griess method); type: cell-based, murine; details: for IC50 / Emax: Mus musculus; for Emax: read-out: efficacy: maximum effect (% of the maximum possible effect), inhibition of NO production, J774.A1 macrophages stimulated with LPS + IFN-γ, 24 h
Experimental: as §1, with “For cytokine and nitric oxide evaluations, J774.A1 cells were seeded in 96-well tissue culture plates at 2 × 10^5 cells per well in DMEM supplemented with 10% FBS and 50 μg/mL gentamicin and incubated for 2 h at 37 °C in a 5% CO2 atmosphere, as previously described. Cells” for “Cells”

[4] = test system: murine macrophage-like J774.A1 cells; assay: Cytotoxicity to J774.A1 macrophages (Alamar Blue); details: concentrations up to 500 μM (compounds 7 and 13 up to 250 μM)
Experimental: Cells were incubated for 72 h at 37 °C in a 5% CO2 atmosphere, as previously described. They were then stimulated with LPS (500 ng/mL, Sigma Chemical Co., St. Louis, MO, USA) and IFN-γ (5 ng/mL, Sigma). Compounds were added to the medium at eight concentrations ranging from 1.9 to 500 μM, in triplicate, and incubated for 24 h. Subsequently, 20 μL per well of Alamar Blue (Invitrogen, Carlsbad, CA, USA) was added to the plates for 6 h. Compounds 7, 11, and 13 were evaluated only up to a maximum concentration of 250 μM due to the limited amount of purified material available for testing. Colorimetric readings were performed at 570 and 600 nm. Triton X-100 (5%) was used as the positive control.

[5] = J774.A1, 24 h, read-out: IC50, half maximal inhibitory concentration, NO production, J774.A1 macrophages stimulated with LPS (500 ng/mL) + IFN-γ (5 ng/mL), 24 h, nitrite by Griess
[6] = J774.A1, read-out: IC50 (in Figure 8 panels), nitric oxide production, Figure 8, no unit in the boxes, μM only in axis labels, LPS + IFN-γ stimulated J774.A1

SMILES	production of IL-1β (in words) [1]	production of IL-6 (in words) [2]	IC50 [3, 5] [µM]	Emax ([3]; J774.A1, 24 h) [%]	cytotoxic effects in J774 macrophages (in words) [4]	efficacy: maximum effect (% of the maximum possible effect), inhibition of NO production ([3]; J774.A1 macrophages stimulated with LPS + IFN-γ, 24 h) [%]	IC50 [3, 6] [µM]
COC1CC(OC2CCC3(C)C(=CCC4(O)C3CC(OC(=O)C=Cc3ccccc3)C3(C)C(O)(C(C)OC(=O)c5cccnc5)CCC43O)C2)OC(C)C1OC1CC(OC)C(OC2OC(C)C(O)C(OC)C2O)C(C)O1 [Compound 1, 12-O-cinnamoyl-20-O-nicotinoyl-(20R)-sarcostin-3-O-β-D-6-deoxy-3-O-methyl-allopyranosyl-(1 → 4)-β-D-oleandropyranosyl-(1 → 4)-β-D-cymaropyranoside]	significant reduction; also recorded: comparable to those of Dexa	comparable to those of Dexa	24.5	> 70	did not induce cytotoxic effects	–	–
COC1CC(OC2CCC3(C)C(CCC4(O)C3CC(OC(=O)C=Cc3ccccc3)C3(C)C(O)(C(C)OC(=O)c5cccnc5)CCC43O)C2)OC(C)C1OC1CC(OC)C(OC2OC(C)C(O)C(OC)C2O)C(C)O1 [Compound 2, 12-O-cinnamoyl-20-O-nicotinoyl-(20R)-5,6-dihydrosarcostin-3-O-β-D-6-deoxy-3-O-methyl-allopyranosyl-(1 → 4)-β-D-oleandropyranosyl-(1 → 4)-β-D-cymaropyranoside]	significant reduction; also recorded: comparable to those of Dexa	comparable to those of Dexa	32.1	> 70	did not induce cytotoxic effects	–	–
COC1CC(OC2C(C)OC(OC3CCC4(C)C(CCC5(O)C4CC(OC(=O)C=Cc4ccccc4)C4(C)C(O)(C(C)OC(=O)c6cccnc6)CCC54O)C3)CC2OC(C)=O)OC(C)C1OC1OC(C)C(O)C(OC)C1O [Compound 3, 12-O-cinnamoyl-20-O-nicotinoyl-(20R)-5,6-dihydrosarcostin-3-O-β-D-6-deoxy-3-O-methyl-allopyranosyl-(1 → 4)-β-D-oleandropyranosyl-(1 → 4)-β-D-3′-O-acetyl-cymaropyranoside]	significant reduction; also recorded: comparable to those of Dexa	comparable to those of Dexa	29.1	71.8	did not induce cytotoxic effects	68.0	29.1
COC1CC(OC2CCC3(C)C(CCC4(O)C3CC(OC(=O)C=Cc3ccccc3)C3(C)C(O)(C(C)OC(=O)c5ccccc5)CCC43O)C2)OC(C)C1OC1CC(OC)C(OC2OC(C)C(O)C(OC)C2O)C(C)O1 [Compound 4, 12-O-cinnamoyl-20-O-benzoyl-(20R)-5,6-dihydrosarcostin-3-O-β-D-6-deoxy-3-O-methyl-allopyranosyl-(1 → 4)-β-D-oleandropyranosyl-(1 → 4)-β-D-cymaropyranoside]	significant reduction	reduced IL-1β production but not IL-6	> 100	< 50	did not induce cytotoxic effects	–	–
COC1CC(OC2CCC3(C)C(CCC4C3CC(OC(=O)C=Cc3ccccc3)C3(C)C(C(C)O)CCC43O)C2)OC(C)C1OC1CC(OC)C(OC2OC(C)C(O)C(OC)C2O)C(C)O1 [Compound 10, 12-O-cinnamoyl-(20S)-5,6,8,17-tetrahydrosarcostin-3-O-β-D-6-deoxy-3-O-methyl-allopyranosyl-(1 → 4)-β-D-oleandropyranosyl-(1 → 4)-β-D-cymaropyranoside]	significantly reducing; also recorded: significant reduction; also recorded: comparable to those of Dexa	significantly reducing; also recorded: comparable to those of Dexa	17.5	66.1	most cytotoxic	–	17.5
COC1CC(OC2C(C)OC(OC3CCC4(C)C(CCC5(O)C4CC(OC(=O)C=Cc4ccccc4)C4(C)C(C(C)O)CCC54O)C3)CC2OC(C)=O)OC(C)C1OC1OC(C)C(O)C(OC)C1O [Compound 13, 12-O-cinnamoyl-(20S)-5,6,17-trihydrosarcostin-3-O-β-D-6-deoxy-3-O-methyl-allopyranosyl-(1 → 4)-β-D-oleandropyranosyl-(1 → 4)-β-D-3′-O-acetyl-cymaropyranoside]	significant reduction	–	42.4	59.3	did not exhibit cytotoxicity at the concentrations tested	–	42.4
COC1CC(OC2CCC3(C)C(CCC4(O)C3CC(OC(=O)C=Cc3ccccc3)C3(C)C(C(C)O)CCC43O)C2)OC(C)C1OC1CC(OC)C(OC2OC(C)C(O)C(OC)C2O)C(C)O1 [Compound 15, 12-O-cinnamoyl-(20S)-5,6,17-trihydrosarcostin-3-O-β-D-6-deoxy-3-O-methyl-allopyranosyl-(1 → 4)-β-D-oleandropyranosyl-(1 → 4)-β-D-cymaropyranoside]	significant reduction	–	33.7	62.9	most cytotoxic	–	33.8
COC1CC(OC2CCC3(C)C(CCC4(O)C3CC(OC(C)=O)C3(C)C(C(C)O)CCC43O)C2)OC(C)C1OC1CC(OC)C(OC2OC(C)C(O)C(OC)C2O)C(C)O1 [Compound 16, 12-O-acetyl-(20S)-5,6,17-trihydrosarcostin-3-O-β-D-6-deoxy-3-O-methyl-allopyranosyl-(1 → 4)-β-D-oleandropyranosyl-(1 → 4)-β-D-cymaropyranoside]	significant reduction	reduced IL-1β production but not IL-6	40 to 70	< 50	only mild cytotoxicity at the highest concentrations	–	–
COC1CC(OC2C(C)OC(OC3CCC4(C)C(CCC5(O)C4CC(OC(C)=O)C4(C)C(C(C)OC(=O)c6ccccc6)CCC54O)C3)CC2OC(C)=O)OC(C)C1OC1OC(C)C(O)C(OC)C1O [Compound 17, 12-O-acetyl-20-O-benzoyl-(20R)-5,6,17-trihydrosarcostin-3-O-β-D-6-deoxy-3-O-methyl-allopyranosyl-(1 → 4)-β-D-oleandropyranosyl-(1 → 4)-β-D-3′-O-acetyl-cymaropyranoside]	significant reduction	–	46.3	< 50	only mild cytotoxicity at the highest concentrations	–	46.3
